Measured values from article PMC10135567, “New Indole-3-Propionic Acid and 5-Methoxy-Indole Carboxylic Acid Derived Hydrazone Hybrids as Multifunctional Neuroprotectors” (Antioxidants, 2023).

Assays:
[1] = system: isolated rat-brain synaptosomes; assay: 6-OHDA-induced neurotoxicity in isolated rat synaptosomes, synaptosomal viability; format: cell-based; settings: Rattus norvegicus; 10 µM pre-incubation 30 min, then 150 µM 6-OHDA 1 h; read-out: synaptosomal viability (SV) preserved, as compared to 6-OHDA
Protocol: (§1) This neurotoxicity model was based on the metabolism and auto-oxidation of 6-hydroxy dopamine responsible for the reactive oxygen species and quinones generation, ultimately leading to neurotoxicity and neurodegeneration. The experiment was performed by pre-incubation of the synaptosomes with 10 µM of the compounds for 30 min, followed by the addition of 150 µM 6-hydroxy dopamine for induction of neurotoxicity. After 1 h, they were centrifuged twice for 1 min at 15,000 × g. After the second wash, the precipitates were resolved with buffer B and glucose.

[2] = O-phenanthroline Fe(II) chelation test; format: physicochemical; settings: 200 µM compound, FeCl2
Protocol: The Fe (II)-chelating activity of the tested hydrazones was determined by the O-phenanthroline method. A total of 1 mL sample solutions of 50 mM PB pH 7 contained 0.2 mM O-phenanthroline and 0.05 mM FeCl2 and 0.2 mM hydrazone. In the controls, the tested compounds were omitted. Absorbance was measured at 515 nm via GENESYS 50 UV-VIS spectrophotometer after incubation for 5 min at 37 °C. The data for the sample activity were presented as a percentage of the control measurement. Absorbance spectra of all the samples, the control, and the measurement compositions containing the tested hydrazones and Fe(II) at the concentrations used in the samples were measured.
To explain the results of both systems of Fe(II)-induced oxidative damage, we studied the potency of the tested compounds to chelate-iron (Fe(II)). This was studied by spectrophotometric determination of free iron (Fe(II)) using the ortho-phenanthroline test, as 1,10-phenantroline reacts rapidly with Fe(II) ions in weakly acidic media, generating an orange–red complex (ferroin) with characteristic absorbance spectra (molar absorptivity 1.10.104 (α = 0.20) at ~max 512 nm and a molar ratio 3:1 (R: Fe(II))). The generated complex was stable, and the bound Fe(II) was resistant to oxidation. Lower absorbance of the reaction mixture indicated higher Fe^2+-chelating activity.

[3] = Fe(II)-induced lipid peroxidation assay (LP assay, TBARS); format: biochemical; settings: 90 µM, lecithin 1 mg/mL, 0.1 mM FeCl2; lower = stronger antioxidant
Protocol: (§2) The lipid peroxidation assay and a modification of the deoxyribose-degradation assay were used. Two types of measurement compositions in phosphate buffer (PB–K2HPO4/KH2PO4, pH 7.4) were prepared for both tests: (i) samples, containing the biologically relevant molecules (lecithin emulsion or deoxyribose), iron, and the tested hydrazones at the concentrations indicated below the figures; and (ii) controls, in which the tested hydrazones were omitted. The data for the sample activity were presented as a percentage of the control measurement.
The thiobarbituric-acid reactive-substance colorimetric test was performed in a model system of Fe(II)-induced lipid peroxidation as an emulsion prepared from egg yolk phospholipids. Each sample contained 1 mg/mL of lecithin. LP was initiated using 0.1 mM FeCl2. After 30 min incubation at 37 °C, 0.5 mL of 2.8% trichloroacetic acid solution and 0.5 mL of 0.5% thiobarbituric acid solution were added, following a second incubation at 100 °C for 20 min. Centrifugation at 3000 rpm for 20 min at 4 °C was performed, and we determined the absorbance value of the supernatant at 532 nm via Shimadzu UV-1601 UV-VIS spectrophotometer.

[4] = MTT cell viability assay (cytotoxicity), SH-SY5Y; settings: human, SH-SY5Y neuroblastoma cells
Protocol: Neuroblastoma cell line SH-SY5Y (94030304) was acquired from the European Collection of Cell Cultures (ECACC, Salisbury, UK). Cells were cultured in a medium prepared with RPMI basic media supplemented with 10% heat-inactivated FBS (fetal bovine serum), 2 mM L-glutamine, 1% antibiotics (penicillin/streptomycin), and incubated at 37 °C in a humidified atmosphere containing 5% of CO2. The culture’s medium was replaced at a time interval of 2–3 days.
(§3) Cell viability was assessed via the mitochondrial reductase-dependent reaction of (3-(4,5-dimethylthiazol-2-yl)- 2,5-diphenyl tetrazolium bromide (MTT, cat. no. 475989, Calbiochem, Merck KGaA, Darmstadt, Germany). The SH-SY5Y and bEnd3 cell lines were seeded in 96-well plates at a density of 0.7 × 10^4 (bEnd3) or 2 × 10^4 (SH-SY5Y) cells/well and allowed to adhere for 24 h at 37 °C, 5% CO2. Then, the cells were incubated with the compounds (1–500 μM) for a preset time (24 h). For the solvent, the control cells were treated with DMSO corresponding to the highest concentration of DMSO in the samples (0.5% DMSO) in order to exclude its cytotoxic effect on the cells. For each concentration, a set of at least 6 wells were used. After incubation, the solution from each well was exchanged with fresh culture medium (100 µL/well), containing the MTT reagent (0.5 mg/mL) and incubated for 3 h at 37 °C in a humidified atmosphere and 5% CO2. The obtained formazan crystals were dissolved in 100 µL/well of 5% formic acid in propan-2-ol solution (or DMSO). The absorbance was measured at 570 nm via multiplate reader Tecan Infinite F200 PRO (Tecan Trading AG., Männedorf, Switzerland) or Synergy 2 (BioTek Instruments, Inc., Highland Park, Winooski, VT, USA).
(§4) Both the SH-SY5Y and bEnd3 cells were treated with the test compounds in a concentration range from 1 to 500 µM for 24 h.

[5] = Stability by UV-vis measurements at different pH; format: physicochemical; settings: 50 µM, pH 2, 4.5, 7.4 and 8.4, after 1, 2, 3 and 24 h
Protocol: The stability of the compounds was also considered a potential issue. Therefore, selected compounds (3a, 3d, 5d, and 5e at a concentration of 50 µM) were studied by UV-vis measurements under different pH conditions, including pH 2, 4.5, 7.4, and 8.4, to represent different physiological (gastric, intestinal, etc.) conditions.

[6] = MTT cell viability assay (cytotoxicity), bEnd3; format: cell-based, mouse; settings: mouse, bEnd3 brain endothelial cells, 1–500 µM
Protocol: Mouse-brain endothelial cell line bEnd3 [36] (CRL-2299) was purchased from the American Type Culture Collection (ATCC, Manassas, VA, USA). The cells were cultured in DMEM (Dulbeco’s modified essential medium) (cat. no. 30-2002, ATCC, Manassas, VA, USA), supplemented with 10% heat-inactivated FBS (cat. no. F7524, Sigma-Aldrich Co. LLC, St. Louis, MO, USA), 1 mM L-glutamine (cat. no. G7513, Sigma-Aldrich Co. LLC, St. Louis, MO, USA) and 1× Antibiotic-Antimycotic solution (penicillin: streptomycin: amphotericin B (100 U/mL: 0.10 mg/mL: 0.25 µg/mL) (cat. no. A5955, Sigma-Aldrich Co. LLC, St. Louis, MO, USA) at 37 °C in a humidified atmosphere containing 5% CO2. The cells were passaged in 75 cm^2 flasks every 3–5 days via trypsinization (StableCell Trypsin solution, cat. no. T2610, Sigma-Aldrich Co. LLC, St. Louis, MO, USA).
as §3, §4

[7] = Superoxide radical scavenging, xanthine/xanthine oxidase/NBT system; format: biochemical
Protocol: The 1 mL cuvette for the control contained 1 mM xanthine, 20 µL xanthine oxidase (100 IU/L), and 0.04 mM NBT [43, 44]. In the sample compositions, the tested hydrazones at different concentrations were added. All measurement compositions were incubated at 37 °C, and the absorbance was determined spectrophotometrically at 560 nm via Shimadzu UV-1601 UV-vis spectrophotometer.
The potential capability of the investigated compounds to prevent the superoxide-anion radical-induced NBT reduction was investigated spectrophotometrically by xanthine-oxidase assay. The assay was carried out at the final concentration of the tested compounds, at 1, 10, 50, and 100 µM.

[8] = Fe(II)-induced deoxyribose degradation assay; format: biochemical; settings: 80 µM, 2-deoxyribose 0.5 mM, 0.1 mM FeCl2; lower = stronger antioxidant
Protocol: as §2
The deoxyribose (0.5 mM) damage was induced by adding FeCl2 (0.1 mM). The measurement compositions were incubated at 37 °C for 30 min. The next step comprised adding 0.5 mL of 2.8% trichloroacetic acid and 0.5 mL of thiobarbituric acid. Then, the samples were heated in boiling water for 20 min, and their absorbance was estimated at 532 nm (characteristic band for the generated chromophore) via Shimadzu UV-1601 UV-vis spectrophotometer.

[9] = target: T1, recombinant human MAO-B (hMAO-B) (Homo sapiens, UniProt P27338); assay: hMAO-B enzyme activity inhibition (Amplex Red fluorimetric assay); format: biochemical; settings: 1 µM
T1 sequence (P27338 1-520): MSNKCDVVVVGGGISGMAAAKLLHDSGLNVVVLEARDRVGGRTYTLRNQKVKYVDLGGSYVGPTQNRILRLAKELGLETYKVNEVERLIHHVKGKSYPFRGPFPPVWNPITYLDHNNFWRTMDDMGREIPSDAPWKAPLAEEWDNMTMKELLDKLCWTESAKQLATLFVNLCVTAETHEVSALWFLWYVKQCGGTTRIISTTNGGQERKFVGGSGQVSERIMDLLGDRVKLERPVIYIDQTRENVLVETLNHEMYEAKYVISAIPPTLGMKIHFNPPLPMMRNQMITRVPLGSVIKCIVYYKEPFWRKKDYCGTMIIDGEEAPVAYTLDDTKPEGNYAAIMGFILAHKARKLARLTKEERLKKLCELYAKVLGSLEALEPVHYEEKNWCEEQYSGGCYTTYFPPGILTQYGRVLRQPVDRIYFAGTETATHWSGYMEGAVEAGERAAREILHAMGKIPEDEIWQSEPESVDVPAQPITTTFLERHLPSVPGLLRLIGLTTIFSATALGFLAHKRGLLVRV
Protocol: Amplex® UltraRed reagent [48] was used for detection of the hydrogen peroxide and peroxidase activity in biological samples and enzymes. In the presence of peroxidase, a red phosphorescent oxidation product, resorufin, was produced due to the 1:1 stoichiometric reaction of Amplex® Red with hydrogen peroxide. The analysis was conducted spectrophotometrically based on the high extinction coefficient of the color product. Using this method, small amounts of hydrogen peroxide (of the order of 10 pM in a volume of 100 µL) could be detected.
The following controls were used: pure MAO-B working solution in reaction buffer, MAO-B working solution containing hydrogen peroxide, and pure reaction buffer. The final concentration of the substances was 1 µM. […] At the end of the incubation period, the reaction was started by adding a 50 µL of a mix solution containing solutions of Amplex® Red reagent, horseradish peroxidase (HRP), and tyramine as a substrate for the enzyme in a reaction buffer, to each well on the 96-well plate.

[10] = system: isolated rat-brain synaptosomes; assay: 6-OHDA-induced neurotoxicity in isolated rat synaptosomes, GSH level; format: cell-based; settings: 10 µM pre-incubation 30 min, then 150 µM 6-OHDA 1 h
Protocol: as §1

[11] = system: isolated rat-brain synaptosomes; assay: Synaptosomal viability (MTT), substances administered alone; settings: 100 µM
Protocol: Preparation of the synaptosomes was carried out by multiple centrifugations using the Percoll gradient. Homogenization of the brains was performed in 10 volumes of cold buffer 1, which contained 5 mM HEPES and 0.32 M sucrose (pH = 7.4), followed by centrifugation at different speeds. For preparation of the gradient, the synaptosomes were isolated by Percoll reagent. Synaptosomes were resuspended and incubated in buffer 2, which contained 290 mM NaCl, 0.95 mM MgCl2x6H2O, 10 mM KCl, 2.4 mM CaCl2xH2O, 2.1 mM NaH2PO4, 44 mM HEPES, and 13 mM D-glucose. Incubations were performed in a 5% CO2 + 95% O2 atmosphere. The method of Lowry et al., using bovine serum albumin as a standard content, was applied for determination of synaptosomal protein [51].
Synaptosomal viability was monitored based on a (3-(4,5)-dimethylthiazol-2-yl)-2,5-diphenyl tetrazolium bromide) assay. After incubation with the compounds, synaptosomes were treated with 0.5 mg/mL solution of (3-(4,5)-dimethylthiazol-2-yl)-2,5-diphenyl tetrazolium bromide) for 10 min at […]. Then, the synaptosomes were centrifuged twice at 15,000× g for 1 min. The resulting formazan crystals were dissolved in DMSO (dimethyl sulfoxide), and the extinction was determined by spectrophotometric measurements at 580–660 nm. […]

red blood cells = assay: Red blood cell hemolysis assay; format: cell-based, rat; settings: positive control, 20% Triton X-100, 1 h, 37 °C
Protocol: The potential of the test compounds to induce hemolysis was evaluated following the protocol described by Evans et al.. The blood was collected from the heart of male Wister rats. The red blood cells were separated from the blood by repeated centrifugation in 0.9% NaCl buffer and were resuspended in phosphate-buffered saline (PBS, pH 7.4). The test compounds in concentrations 10, 100, and 200 µM, a negative control (distilled water), and a positive control (20% Triton X-100) were pipetted into 96-well plates. Then, the erythrocyte suspension in PBS was added, and the plates were incubated for 1 h at 37 °C. After centrifugation (5 min at 500× g), the supernatant was transferred to new 96-well plates in order to measure hemoglobin absorbance at 430 nm on a Synergy 2 plate-reader (BioTek Instruments, Inc., Highland Park, Winooski, VT, USA). The obtained results were presented as a percentage of hemolysis relative to the hemoglobin absorbance values in the positive controls. Hemoglobin absorbance of negative controls was accepted as zero hemolysis. […]
Hemolysis assay, using red blood cells, is an essential part of the in vitro biocompatibility testing of new drug substances; and it was used as a screening method for the evaluation of potential in vivo toxicity. The release of hemoglobin was a definite sign of the cell lysis of the erythrocytes and could be measured spectrophotometrically. […]

Compound | viability at 10 µM [1] [%] | absorbance at 515 nm compared to the controls (Fe(II) chelation) [2] | absorbance ratio sample/control (lipid peroxidation) [3] | IC50 at 24 h [4] [µM] | stability (UV-vis spectra over time) [5] | IC50 at 24 h [6] [µM] | decrease of NBT reduction as compared to the controls ([7]; 100 µM (highest tested concentration)) | absorbance ratio, % of the controls (deoxyribose degradation) [8] | melting point [°C] | reduction of hMAO-B enzyme activity vs. pure hMAO-B [9] [%] | GSH level preserved, as compared to 6-OHDA [10] [%] | reduction of synaptosomal viability (SV) vs. non-treated synaptosomes [11] [%] | absorbance ratio (NBT reduction, % of control) ([7]; 1, 10, 50 and 100 µM) | hemolysis (red blood cells) [%]
O=C(CCc1c[nH]c2ccccc12)NN=Cc1cccc(O)c1O [Compound 3a, N′-(2,3-Dihydroxybenzylidene)-3-(1H-indol-3-yl)propanehydrazide] | 44 | identical absorbance values, as compared to the controls | around 30% | 120 | stable over time | 356 | less than 15% | around 35% | 204 to 205 | – | – | – | – | –
O=C(O)CCc1c[nH]c2ccccc12 [IPA, Indole-3-propionic acid] | 56 | statistically identical absorbance values at 515 nm, as compared to the controls | further amelioration of the antioxidant properties was not observed, as compared to melatonin | > 500 | – | – | – | – | – | 25 | 50 | 47 | did not influence the estimated absorbance ratio at any of the tested concentrations | –
Triton X-100 | – | – | – | – | – | – | – | – | – | – | – | – | – | 100
